Data on eight substances can be found in patent US20230272012A1, “PEPTIDES AND METHODS OF USE” (REALTA LIFE SCIENCES, INC., priority 2020, published 2023).

Experiment [1] concerns antibody-initiated complement activation (human O sera and AB red blood cells). Kind of experiment: ABO incompatibility hemolytic assay of complement activity (CH50-type). The experiment is classed as cell-based. As to conditions: peptide 0.8 mg/ml (~0.5 mM). The method, then:
FIG. 1A-1B show PIC1 peptides' inhibition of complement activation in an ABO incompatibility assay. […] Inhibition of ABO incompatibility hemolysis in a CH50-type assay. Peptides are at a final concentration of 0.5 mM. Values are represented as a percent of the positive control, which consists of human O sera and AB red blood cells in GVBS^++ buffer. Data are the means of n=3 independent experiments±SEM.
For hemolytic complement assays, human red blood cells (RBCs) from type AB donors were purified, washed, and standardized to 1.0×10^9 cells/ml, as previously described. Human sera from type O donors at a 15% final concentration was combined with 0.5 mM of the peptides and the volume was brought up to 0.2 ml with GVBS^++ and 5.0×10^7 RBCs. The samples were incubated for 1 hour at 37° C. and then spun at 3,000 rpm for 5 minutes and the supernatant was collected and read at 412 nm. Values are represented as a percent of the positive control, which consists of human O sera and AB red blood cells in GVBS^++ buffer.
To assess the extent to which the peptide variants inhibit antibody-initiated complement activation, an ABO incompatibility ex vivo assay was utilized in which purified erythrocytes from a ‘type AB+’ donor are incubated with sera from a ‘type O’ subject containing anti-A and anti-B antibodies. Peptides were tested at a concentration of 0.8 mg/ml (˜0.5 mM). […] D-amino acid variants PA-0127 and PA-0133 decreased ABO hemolysis by 20% (P value=0.083) and 25% (P value=0.076), respectively. […]

For the next experiment, the target named is T1, PD-1/PD-L1 interaction (Homo sapiens, UniProt Q15116+Q9NZQ7).
T1 construct: host or cells: PD-1 effector cells; PD-L1 aAPC/CHO-K1 cells
T1 sequence (Q15116 25-288): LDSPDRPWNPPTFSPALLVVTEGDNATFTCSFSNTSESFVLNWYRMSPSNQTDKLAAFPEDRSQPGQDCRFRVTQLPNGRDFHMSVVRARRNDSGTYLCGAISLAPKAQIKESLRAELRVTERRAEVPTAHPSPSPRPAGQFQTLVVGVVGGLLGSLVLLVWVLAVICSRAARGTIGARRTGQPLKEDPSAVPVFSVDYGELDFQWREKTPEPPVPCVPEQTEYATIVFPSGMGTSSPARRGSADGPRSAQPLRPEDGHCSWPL
T1 sequence (Q9NZQ7 19-290): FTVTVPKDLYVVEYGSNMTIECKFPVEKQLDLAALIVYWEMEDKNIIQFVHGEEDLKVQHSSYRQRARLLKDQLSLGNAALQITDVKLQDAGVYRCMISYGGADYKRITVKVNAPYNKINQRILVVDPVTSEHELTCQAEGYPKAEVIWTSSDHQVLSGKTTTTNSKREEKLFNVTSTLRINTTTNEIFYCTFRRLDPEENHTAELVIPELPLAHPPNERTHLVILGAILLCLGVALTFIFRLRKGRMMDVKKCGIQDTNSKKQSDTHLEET
The experiment is described as follows: PD-1/PD-L1 Blockade Bioassay (Promega). The class given is cell-based. As to conditions: increasing peptide concentrations. The method, then:
PD-1 effector cells were incubated with PD1-L1 aAPC cells in the absence or presence of increasing concentrations of anti-PD-1 antibody (positive control) and select PIC1 peptides. Luminescence was detected in luminometer plate reader.
To assess if PIC1 peptides could block PD-1 inhibitory activity in a cell-based assay, select peptides were screened in the PD-1/PD-L1 Blockade Bioassay (Promega). The PD-1/PD-L1 Blockade Bioassay is a biologically relevant MOA-based assay that can be used to measure the potency and stability of antibodies and other biologics designed to block the PD-1/PD-L1 interaction. This bioluminescent cell-based assay is used to measure the potency and stability of molecules targeting PD-1 and consists of two genetically engineered cell lines: aAPC/CHO-K1 Cells are CHO-K1 cells with an engineered cell surface protein designed to activate cognate TCRs in an antigen-independent manner. When the two cell types are co-cultured, the PD-1/PD-L1 interaction inhibits TCR signaling and NFAT-mediated luciferase activity. Addition of an inhibitory molecule that blocks either PD-1 or PD-L1 releases the inhibitory signal and results in TCR signaling and NFAT-mediated luciferase activity.

Bridge positions count the residues as written; N and C are the ends. Square brackets hold non-standard residues; d marks the D form. Ends that are not written are not given here. R8 = C=CCCCCCC[C@@](C)(N)C(=O)O; S5 = C=CCCC[C@](C)(N)C(=O)O; Sar = CNCC(=O)O

Turning to “IALILEP(Sar)CS5QERS5dA (IALILEP[Sar]C[S5]QER[S5][dA]; bridges not given here; also: S5 10-14 may or may not be stapled) [PA-0145]”, the “increase in complement inhibition compared to PA-I8Sar” value in experiment [1] was roughly 10%.
In the case of “IALILEP(Sar)CS5QdERS5A (IALILEP[Sar]C[S5]Q[dE]R[S5]A; staple 10-14) [PA-0144]”, the “inhibition of PD-1/PD-L1 inhibitory signaling (luminescence)” value (“inhibition … (luminescence)” for short) in the experiment with PD-1/PD-L1 interaction is reported as “did not show PD-1/PD-L1 inhibitory activity”.
Consider “IALILEP(Sar)dCS5QERS5A (IALILEP[Sar][dC][S5]QER[S5]A; staple 10-14) [PA-0143]”, for which, in the experiment with PD-1/PD-L1 interaction, the “inhibition … (luminescence)” value is on record as “did not show PD-1/PD-L1 inhibitory activity”.
For “IALILEPI(Sar)CQEdRAA (IALILEPIXCQERAA; D-arginine, sarcosine; MOD_RES (9)..(9) Sarcosine; MOD_RES (13)..(13) D-amino acid) [PA-0167]”, the “inhibition of complement in the hemolytic assay compared to PA-C9Sar” value in experiment [1] was “slightly less well”.
As to “IALIR8EP(Sar)CCQS5RAA (IALI[R8]EP[Sar]CCQ[S5]RAA; bridges not given here; also: R8/S5 5-12 may or may not be stapled) [PA-0136]”, in experiment [1], the “inhibition of ABO incompatible hemolysis compared to PA-I8Sar” value is on record as “same level as the parent molecule”.
Turning to “RLS-0142: PIC1 peptide screened in the bioassay; no sequence printed (IALILEP[Sar][dC][S5]QER[S5]A; staple 10-14)”, the “inhibition … (luminescence)” value with PD-1/PD-L1 interaction is “did not show PD-1/PD-L1 inhibitory activity”.
For the substance “S5ALIS5EP(Sar)CCQERAA ([S5]ALI[S5]EP[Sar]CCQERAA; bridges not given here; also: S5 1-5 hydrocarbon staple: may or may not be stapled) [PA-0138]”, in experiment [1], the “inhibition of ABO incompatible hemolysis compared to PA-I8Sar” value is “lesser extent”.
Regarding “dIALILEPI(Sar)CQERAA (IALILEPIXCQERAA; D-isoleucine, sarcosine; MOD_RES (1)..(1) D-amino acid; MOD_RES (9)..(9) Sarcosine) [PA-0156]”, in the experiment with PD-1/PD-L1 interaction, the “inhibition … (luminescence)” value is on record as “did not show PD-1/PD-L1 inhibitory activity”.
